The values below are quoted from earlier work in patent US20210145797A1, “COMPOSITIONS FOR TREATING SKIN” (UNIVERSITY OF FLORIDA RESEARCH FOUNDATION, INCORPORATED, priority 2018, published 2021).

The subject of this data set is herpes simplex. Particulars: topical over-the-counter treatment of herpes simplex.

For the molecule `CCCCCCCCCCCCCCCCCCCCCCO` [N-docosanol], the “improvement of time of healing” value (4.1 days to 2.5 days) is listed as 1.5 days. Further, for the setting “from a median of 4.1 days”, the “time of healing (median)” value is 2.5 days.
